Assay results as given in patent US11051515B2, “3-acyl-benzamides and their use as herbicides” (Bayer Aktiengesellschaft, priority 2017, dated 2021).

Legend:
STEME [1] = assay: Pre-emergence action against STEME; format: in vivo, Stellaria media; details: Dosage 320 g/ha, pre-emergence
In short: (§1)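 Seeds sown in sandy loam in wood-fiber pots and covered with soil. Greenhouse growth; visual damage scored after 3 weeks versus untreated controls (100% = dead, 0% = like control).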

ABUTH [2] = assay: Pre-emergence action against ABUTH; format: in vivo, Abutilon theophrasti; details: pre-emergence, dosage 320 g/ha, scored visually after 3 weeks vs untreated controls
In short: as §1

MATIN [3] = assay: Pre-emergence action against MATIN; format: in vivo, Matricaria inodora; details: Dosage 320 g/ha, pre-emergence
In short: as §1

ECHCG [4] = assay: Post-emergence action against ECHCG; format: in vivo, Echinochloa crus-galli; details: Echinochloa crus-galli, 504 h; post-emergence, dosage 80 g/ha, visual assessment about 3 weeks after treatment vs untreated controls; read-out: Post-emergence action against ECHCG (herbicidal action in percent)
In short: (§2)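 Weeds grown in sandy loam in greenhouse, treated at one-leaf stage (2–3 weeks after sowing) with WP or EC formulations sprayed as aqueous suspension/emulsion at 600 to […] water with 0.2% wetting agent. Visual rating after about 3 weeks versus untreated controls, as % herbicidal action (100% = plants dead, 0% = like control).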

AVEFA = assay: Pre-emergence action against AVEFA; format: in vivo, Avena fatua; details: dosage 320 g/ha, scored visually after 3 weeks vs untreated controls
In short: as §1

VERPE [5] = assay: Pre-emergence action against VERPE; format: in vivo, Veronica persica; details: Dosage 320 g/ha, pre-emergence
In short: as §1

CYPES [6] = assay: Post-emergence action against CYPES; format: in vivo, Cyperus esculentus; details: Cyperus esculentus, 504 h; post-emergence, dosage 80 g/ha, visual assessment about 3 weeks after treatment vs untreated controls; read-out: Post-emergence action against CYPES (herbicidal action in percent)
In short: as §2

VIOTR [7] = assay: Pre-emergence action against VIOTR; format: in vivo, Viola tricolor; details: Dosage 320 g/ha, pre-emergence
In short: as §1

SETVI [8] = assay: Pre-emergence action against SETVI; format: in vivo, Setaria viridis; details: Setaria viridis, 504 h; pre-emergence, dosage 320 g/ha, scored visually after 3 weeks vs untreated controls; read-out: SETVI (Table B8, pre-emergence herbicidal activity)
In short: as §1

MATIN [9] = assay: Post-emergence action against MATIN; format: in vivo, Matricaria inodora; details: Tripleurospermum inodorum, 504 h; post-emergence, dosage 80 g/ha, visual assessment about 3 weeks after treatment vs untreated controls; read-out: Post-emergence action against MATIN (herbicidal action in percent)
In short: as §2

ALOMY = assay: Pre-emergence action against ALOMY; format: in vivo, Alopecurus myosuroides; details: Alopecurus myosuroides, 504 h; dosage 320 g/ha; pre-emergence; scored visually after 3 weeks vs untreated controls; 100% = plants have died, 0% = like control plants; read-out: Pre-emergence action against ALOMY (herbicidal activity in percent)
In short: as §1

PHBPU = assay: Post-emergence action against PHBPU; format: in vivo, Pharbitis purpurea; details: post-emergence, dosage 80 g/ha
In short: as §2

VERPE [10] = assay: Post-emergence action against VERPE; format: in vivo, Veronica persica; details: Veronica persica, 504 h, dosage 80 g/ha
In short: as §2

POLCO [11] = assay: Post-emergence action against POLCO; format: in vivo, Polygonum convolvulus; details: Fallopia convolvulus, 504 h; post-emergence, dosage 80 g/ha
In short: as §2

SETVI [12] = assay: Post-emergence action against SETVI; format: in vivo, Setaria viridis; details: Setaria viridis, 504 h; post-emergence, dosage 80 g/ha, visual assessment about 3 weeks after treatment vs untreated controls; read-out: Post-emergence action against SETVI (herbicidal action in percent)
In short: as §2

AMARE [13] = assay: Post-emergence action against AMARE; format: in vivo, Amaranthus retroflexus; details: post-emergence, dosage 80 g/ha, visual assessment about 3 weeks after treatment vs untreated controls
In short: as §2

ECHCG [14] = assay: Pre-emergence action against ECHCG; format: in vivo, Echinochloa crus-galli; details: pre-emergence, dosage 320 g/ha, scored visually after 3 weeks vs untreated controls
In short: as §1

LOLMU = assay: Pre-emergence action against LOLMU; format: in vivo, Lolium multiflorum; details: Lolium multiflorum, 504 h, dosage 320 g/ha, scored visually after 3 weeks vs untreated controls, read-out: Pre-emergence action against LOLMU (herbicidal activity)
Description: (§3) Seeds of monocotyledonous and dicotyledonous weed plants and crop plants are laid out in sandy loam soil in wood-fiber pots and covered with soil. The compounds of the invention, formulated in the form of wettable powders (WP) or as emulsion concentrates (EC), are then applied to the surface of the covering soil in the form of an aqueous suspension or emulsion at a water application rate equating to […], with addition of 0.2% wetting agent. After the treatment, the pots are placed in a greenhouse and kept under good growth conditions for the trial plants. The damage to the test plants is scored visually after a test period of 3 weeks by comparison with untreated controls (herbicidal activity in percent (%): 100% activity=the plants have died, 0% activity=like control plants).

POLCO [15] = assay: Pre-emergence action against POLCO; format: in vivo, Polygonum convolvulus; details: Fallopia convolvulus, 504 h; Dosage 320 g/ha, pre-emergence
In short: as §1

STEME [16] = assay: Post-emergence action against STEME; format: in vivo, Stellaria media; details: post-emergence, dosage 80 g/ha
In short: as §2

CYPES [17] = assay: Pre-emergence action against CYPES; format: in vivo, Cyperus esculentus; details: Cyperus esculentus, 504 h; pre-emergence, dosage 320 g/ha, scored visually after 3 weeks vs untreated controls; read-out: Pre-emergence action against CYPES (herbicidal activity)
In short: as §1

VIOTR [18] = assay: Post-emergence action against VIOTR; format: in vivo, Viola tricolor; details: Viola tricolor, 504 h; post-emergence, dosage 80 g/ha
In short: as §2

ABUTH [19] = assay: Post-emergence action against ABUTH; format: in vivo, Abutilon theophrasti; details: post-emergence, dosage 80 g/ha, visual assessment about 3 weeks after treatment vs untreated controls
In short: as §2

AMARE [20] = assay: Pre-emergence action against AMARE; format: in vivo, Amaranthus retroflexus; details: pre-emergence, dosage 320 g/ha, scored visually after 3 weeks vs untreated controls
In short: as §1

DIGSA = assay: Pre-emergence action against DIGSA; format: in vivo, Digitaria sanguinalis; details: dosage 320 g/ha, scored visually after 3 weeks vs untreated controls
Description: as §3

LOLRI = assay: Pre-emergence action against LOLRI; format: in vivo, Lolium rigidum; details: dosage 320 g/ha, scored visually after 3 weeks vs untreated controls
In short: as §1

COc1c(C(=O)Nc2nnnn2C)ccc(C(F)(F)F)c1C(C)=O [1-48]
pest or weed control at 320 g/ha (STEME [1]; Stellaria media, 504 h): 90% | pest or weed control at 320 g/ha (ABUTH [2]; Abutilon theophrasti, 504 h, read-out: Pre-emergence action against ABUTH (herbicidal activity)): 100% | pest or weed control at 320 g/ha (MATIN [3]; Tripleurospermum inodorum, 504 h): 100% | pest or weed control at 80 g/ha (ECHCG [4]): 90% | pest or weed control at 320 g/ha (AVEFA; Avena fatua, 504 h, read-out: Pre-emergence action against AVEFA (herbicidal activity)): 90% | pest or weed control at 320 g/ha (VERPE [5]; Veronica persica, 504 h): 100% | pest or weed control at 80 g/ha (CYPES [6]): 100% | pest or weed control at 320 g/ha (VIOTR [7]; Viola tricolor, 504 h): 100% | pest or weed control at 320 g/ha (SETVI [8]): 100% | pest or weed control at 80 g/ha (MATIN [9]): 100% | pest or weed control at 320 g/ha (ALOMY): 90% | pest or weed control at 80 g/ha (PHBPU; Ipomoea purpurea, 504 h): 90% | pest or weed control at 80 g/ha (VERPE [10]): 80% | pest or weed control at 80 g/ha (POLCO [11]): 90% | pest or weed control at 80 g/ha (SETVI [12]): 80% | pest or weed control at 80 g/ha (AMARE [13]; Amaranthus retroflexus, 504 h, read-out: Post-emergence action against AMARE (herbicidal action in percent)): 100% | pest or weed control at 320 g/ha (ECHCG [14]; Echinochloa crus-galli, 504 h, read-out: Pre-emergence action against ECHCG (herbicidal activity)): 100% | pest or weed control at 320 g/ha (LOLMU): 80% | pest or weed control at 320 g/ha (POLCO [15]): 90% | pest or weed control at 80 g/ha (STEME [16]; Stellaria media, 504 h): 100% | pest or weed control at 320 g/ha (CYPES [17]): 90% | pest or weed control at 80 g/ha (VIOTR [18]): 100% | pest or weed control at 80 g/ha (ABUTH [19]; Abutilon theophrasti, 504 h, read-out: Post-emergence action against ABUTH (herbicidal action in percent)): 100% | pest or weed control at 320 g/ha (AMARE [20]; Amaranthus retroflexus, 504 h, read-out: Pre-emergence action against AMARE (herbicidal activity)): 100%

CSc1c(C(=O)Nc2nnnn2C)ccc(C(F)(F)F)c1C(=O)C1CCCC1 [1-285]
Pre-emergence action against STEME (STEME [1]): 100% | Pre-emergence action against ABUTH (herbicidal activity) (ABUTH [2]): 100% | Pre-emergence action against MATIN (MATIN [3]): 100% | Pre-emergence action against AVEFA (herbicidal activity) (AVEFA): 80% | Pre-emergence action against VERPE (VERPE [5]): 90% | Pre-emergence action against DIGSA (herbicidal activity) (DIGSA): 90% | Pre-emergence action against VIOTR (VIOTR [7]): 100% | Post-emergence action against PHBPU (PHBPU): 80 | Pre-emergence action against LOLRI (herbicidal activity) (LOLRI): 80% | Post-emergence action against AMARE (herbicidal action in percent) (AMARE [13]): 90% | Pre-emergence action against ECHCG (herbicidal activity) (ECHCG [14]): 80% | Post-emergence action against STEME (STEME [16]): 80 | Post-emergence action against ABUTH (herbicidal action in percent) (ABUTH [19]): 90% | Pre-emergence action against AMARE (herbicidal activity) (AMARE [20]): 100%
